Results from patent US20230085945A1, “ORTHOGONAL SAFETY SWITCHES TO ELIMINATE GENETICALLY ENGINEERED CELLS” (The Board of Trustees of the Leland Stanford Junior …, priority 2020, published 2023).

Columns and labels:
[1] = tested on: ACTB^TK-mPlum;NANOG^iCasp9-YFP hESCs (iCaspase9-expressing cells); assay: AP21967 treatment of iCaspase9-expressing cells (cross-reactivity check); assay type: cell-based, human; conditions: AP21967 24 hours
[2] = tested on: ACTB^OiCasp9-mPlum;NANOG^iCasp9-YFP hPSCs and differentiated liver, bone and neural progenitors; assay: Killing of ACTB^OiCasp9-mPlum;NANOG^iCasp9-YFP hPSCs and differentiated derivatives by AP21 or AP20 (alamar blue); assay type: cell-based, human; conditions: dual-transgenic line; 1 nM, 24 hours
Method: FIG. 6: Rationale, design and implementation of the ACTB^OiCasP9-mPlum safety switch. A) Intended application of the dual ACTB^OiCasp9-mPlum;NANOG^iCasp9-YFP safeguard. B) Cas9 RNP/AAV6-based knock-in strategy for ACTB^iCasp9-mPlum targeting, which was performed in the NANOG^iCasp9-YFP hESC line. C) 5×10^5 ACTB^OiCasp9-mPlum; NANOG^iCasp9-YFP hESCs were treated with control media or 1-1000 nM AP21967 for 24 hours. Cell viability was analyzed using alamar blue. D) ACTB^OiCasp9-mPlum;NANOG^iCasp9-YFP and ACTB^TK-mPlum; NANOG^iCasp9-YFP hESCs (negative control), in addition to their respective differentiated derivatives, were treated for 24 hours with 1 nM of AP21967. E) 5×10^5 ACTB^OiCasp9-mPlum; NANOG^iCasp9-YFP hESCs, and their respective differentiated derivatives, were treated with control media, 1 nM of AP21967 or and 1 nM of AP20187 for 24 hours. Surviving cells were analyzed by alamar blue. F) 10^6 ACTB^OiCasp9-mPlum;NANOG^iCasp9-YFP hESCs engineered to express CAG-AkaLuciferase were treated with control media or 1 nM AP20187 for 24 hours, and then subcutaneously transplanted into the right and left dorsal flanks of NOD-SCID Il2rg^−/− mice (10^6 cells per flank). 4 weeks post-transplant, teratomas formed and AP21967 was intraperitoneally administered once at 10 mg/kg. […] Total flux (photons/sec) was measured for each animal and was averaged.

[3] = tested on: ACTB^HSV-TK-mPlum;NANOG^iCasp9-YFP hPSCs; assay: Quantification of cell death after ganciclovir treatment of hPSCs; assay type: cell-based, human
Method: (§1) FIG. 5: Implementation of the ACTB^TK-mPlum safety switch. A) NANOG^iCasp9-YFP;ACTB^TK-mPlum hESCs were treated with ganciclovir (or left untreated) for 24 hours, and subsequently ganciclovir was withdrawn and hESCs were cultured for 1 week in mTeSR1 to detect any surviving cells and to allow them to regrow. […] N.D.=not detected. B) NANOG^iCasp9-YFP;ACTB^TK-mPlum hESCs were differentiated into day 6 liver, sclerotome and neural progenitors and treated with ganciclovir at the indicated doses for the last 24 hours of differentiation. Cell survival was analyzed by counting at day 6 of differentiation. C) 10^6 NANOG^iCasp9-YFP; ACTB^TK-mPlum hESCs engineered to express CAG-AkaLuciferase were treated with control media or 1 nM AP20187 for 24 hours, and then subcutaneously transplanted into the right and left dorsal flanks of NOD-SCID Il2rg^−/− mice (10^6 cells per flank). After 3 weeks post-transplant, teratomas formed in vivo and ganciclovir was administered daily at 50 mg/kg until week 7 post-transplant. Bioluminescent imaging of mice was conducted weekly for 7 weeks. Total flux (photons/sec) was measured for each animal and were averaged.
Quantification of cell death after ganciclovir treatment. […] At the end of 6 days of culture in mTeSR1 alone, the number of surviving live cells was counted.

[4] = tested on: teratomas from ACTB^HSV-TK-mPlum;NANOG^iCasp9-YFP hPSCs; assay: Elimination of teratomas using ganciclovir in vivo (bioluminescent imaging); design: species or system NSG mice; conditions: week 7 post-transplantation, 4 weeks after initiating ganciclovir 50 mg/kg daily
Method: as §1, with “After 3 weeks post-transplant, teratomas formed in vivo and ganciclovir was administered daily at 50 mg/kg until week 7 post-transplant. Bioluminescent imaging of mice was conducted weekly for 7 weeks.” left out
FIG. 10: Supporting data for ACTB^TK-mPlum safety switch (related to FIGS. 4-5). […] Total flux (photons/sec) was measured for each animal.
Bioluminescent imaging. […] Subsequent image analysis was done in Aura with regions of interest (ROIs) drawn for each mouse to calculate Total Flux (photons/sec) in order to quantify teratoma growth over time. […]

[5] = tested on: ACTB^HSV-TK-mPlum;NANOG^iCasp9-YFP hPSC-derived liver, bone and forebrain progenitors; assay: Ganciclovir treatment of differentiated progenitors, cell counting at day 6; assay type: cell-based, human; conditions: ganciclovir for last 24 hours of differentiation
[6] = tested on: H9 undifferentiated hPSCs and hPSC-derived neural, liver, and sclerotome cells; assay: YM155 treatment, cell viability by alamar blue; assay type: cell-based, human; conditions: YM155 10 nM or 2 μM, 24 hours
From the text: FIG. 7: Marker expression during hPSC differentiation and evaluation of past safety switches (related to FIG. 2). A) i) Flow cytometry analysis of widely-used pluripotency surface markers SSEA-3, SSEA-4, TRA-1-60, TRA-1-81 and PODXL1^20,21 before and during differentiation into endodermal, mesodermal and ectodermal lineages for 1-6 days. Positive gates were set based on unstained negative controls. ii) Gene expression analysis of previously reported safety system genes CDK1, TERT, SCD1, PODXL1 and SURVIVIN before and during differentiation into endodermal, mesodermal and ectodermal lineages. Expression of lineage markers is depicted normalized to the reference gene YWHAZ (i.e., YWHAZ=1.0). B) Widely-used pluripotency surface markers such as SSEA-3, SSEA-4, TRA-1-60, TRA-1-81 and PODXL1^20,21 were not exclusive to pluripotent cells. […] Unstained hESCs (top row; grey shading) were used as a negative control to set positive gates (dotted vertical lines). […] D) H9 undifferentiated hPSCs and hPSC-derived neural, liver, and sclerotome cells (generated after 6 days of differentiation) were treated for 24 hours with YM155 (either 10 nM or 2 μM), a small molecule SURVIVIN inhibitor, and cell viability was assessed using alamar blue.

Compound: CO[C@H]1[C@@H](O)[C@H](C)C[C@H](C)/C=C/C=C/C=C(\C)[C@@H](c2c[nH]c3c(C)cccc23)C[C@@H]2CC[C@@H](C)[C@@](O)(O2)C(=O)C(=O)N2CCCC[C@H]2C(=O)O[C@H]([C@H](C)C[C@@H]2CC[C@@H](O)[C@H](OC)C2)C[C@H](O)[C@H](C)/C=C(\C)[C@H]1O [AP21]
- killing of iCaspase9-expressing cells [1]: does not kill iCaspase9-expressing cells
- killing of undifferentiated and differentiated cells [2]: kill both undifferentiated hPSCs and differentiated liver, bone and neural progenitors

Compound: Nc1nc(O)c2ncn(COC(CO)CO)c2n1 [ganciclovir]
- in vitro proliferation of hPSCs ([3]; ganciclovir 24 hours, then 1 week in mTeSR1): broadly blocked the in vitro proliferation
- cell death in hPSCs ([3]; three days post-GCV treatment (0.5-2 μM, 24 hours)): cell death was observed
- detectable teratomas by bioluminescent imaging [4]: no ganciclovir-treated mice had detectable teratomas
- in vitro proliferation of derivative liver, bone and forebrain progenitors [5]: broadly blocked the in vitro proliferation

Compound: COCCn1c2c([n+](Cc3cnccn3)c1C)C(=O)c1ccccc1C2=O [YM155]
- cell killing (viability) [6]: killed both undifferentiated and differentiated hPSCs
